Measured values reported in BindingDB's records for doi:10.1002/cbic.200390029 (University of Queensland Brisbane, 2003).

Target: T1, Phospholipase A2, membrane associated (Homo sapiens, UniProt P14555)
T1 sequence (P14555 whole entry): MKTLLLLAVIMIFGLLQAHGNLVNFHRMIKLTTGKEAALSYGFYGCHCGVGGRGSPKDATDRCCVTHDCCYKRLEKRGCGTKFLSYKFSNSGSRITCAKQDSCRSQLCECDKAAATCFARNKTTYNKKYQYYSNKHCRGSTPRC
Test: In Vitro Colorimetric Enzyme Assay

Compound	IC50 [nM]
COc1ccccc1CCCCCCC(=O)N[C@@H](CCC(=O)O)Cc1ccc(OCc2ccccc2)cc1 [hnpsPLA2-IIa Inhibitor, 2d]	1820
CC(=O)Nc1ccccc1CCCCCCC(=O)N[C@@H](CCC(=O)O)Cc1ccc(OCc2ccccc2)cc1 [hnpsPLA2-IIa Inhibitor, 2e]	4050
O=C(O)CC[C@@H](Cc1ccc(OCc2ccccc2)cc1)NC(=O)CCCCCCc1cccnc1 [hnpsPLA2-IIa Inhibitor, 2f]	761
O=C(O)CC[C@@H](Cc1ccc(OCc2ccccc2)cc1)NC(=O)CCCCCCc1cccc([N+](=O)[O-])c1 [hnpsPLA2-IIa Inhibitor, 2g]	536
O=C(O)CC[C@@H](Cc1ccc(Oc2cccnc2)cc1)NC(=O)CCCCCCc1ccccc1 [hnpsPLA2-IIa Inhibitor, 2i]	247
O=C(O)CC[C@@H](Cc1ccc(OCC2CCCCC2)cc1)NC(=O)CCCCCCc1ccccc1 [hnpsPLA2-IIa Inhibitor, 2j]	67
O=C(O)CC[C@@H](Cc1ccc(OCC2CCCC2)cc1)NC(=O)CCCCCCc1ccccc1 [hnpsPLA2-IIa Inhibitor, 2k]	57
CC(C)COc1ccc(C[C@H](CCC(=O)O)NC(=O)CCCCCCc2ccccc2)cc1 [hnpsPLA2-IIa Inhibitor, 2o]	170
CCCCCCCOc1ccc(C[C@H](CCC(=O)O)NC(=O)CCCCCCc2ccccc2)cc1 [hnpsPLA2-IIa Inhibitor, 2p]	86
O=C(O)CC[C@@H](Cc1ccc(O)cc1)NC(=O)CCCCCCc1ccccc1 [hnpsPLA2-IIa Inhibitor, 2q]	2570

Results, then the compound that gave them:

IC50 [nM]	Compound
662	O=C(O)CC[C@@H](Cc1ccc(OCc2ccccc2)cc1)NC(=O)CCCCCc1ccccc1 [hnpsPLA2-IIa Inhibitor, 2a]
2480	O=C(O)CC[C@@H](Cc1ccc(OCc2ccccc2)cc1)NC(=O)CCCCCCCc1ccccc1 [hnpsPLA2-IIa Inhibitor, 2c]
214	O=C(O)CC[C@@H](Cc1ccc(Oc2ccccn2)cc1)NC(=O)CCCCCCc1ccccc1 [hnpsPLA2-IIa Inhibitor, 2h]
19	O=C(O)CC[C@@H](Cc1ccc(OCc2cccc3ccccc23)cc1)NC(=O)CCCCCCc1ccccc1 [hnpsPLA2-IIa Inhibitor, 2l]
39	O=C(O)CC[C@@H](Cc1ccc(OCc2ccc3ccccc3c2)cc1)NC(=O)CCCCCCc1ccccc1 [hnpsPLA2-IIa Inhibitor, 2m]
116	O=C(O)CC[C@@H](Cc1ccc(OC/C=C/c2ccccc2)cc1)NC(=O)CCCCCCc1ccccc1 [hnpsPLA2-IIa Inhibitor, 2n]
